Reference: the NIST ThermoML archive (doi:10.1021/je900212d)

How the values were obtained:
[1] = 101.33 kPa, Liquid
[2] = xn = mol fraction of the nth substance listed; conditions: 101 kPa, Liquid

ClCCCl [1,2-dichloroethane]
[1]
Conditions	mass density [kg/m3]	viscosity [mPa·s]
288.15 K	1259	0.87
293.15 K	1251.9	0.8112
298.15 K	1247.4	0.7597
303.15 K	1239	0.7112
308.15 K	1231.2	0.6747
313.15 K	1222	0.6269

ClCCCl [1,2-dichloroethane] + CCCO
[2]
Conditions	mass density [kg/m3]	viscosity [mPa·s]
288.15 K, x2 = 0.1054	1211	0.8441
288.15 K, x2 = 0.2095	1166.4	0.8809
288.15 K, x2 = 0.3124	1121.8	0.9238
288.15 K, x2 = 0.4141	1078.4	0.998
288.15 K, x2 = 0.5146	1032.4	1.1
288.15 K, x2 = 0.6139	986	1.256
288.15 K, x2 = 0.7121	942.8	1.464
288.15 K, x2 = 0.8092	895.4	1.726
288.15 K, x2 = 0.9051	843.5	2.029
293.15 K, x2 = 0.1054	1205	0.785
293.15 K, x2 = 0.2096	1159.7	0.8086
293.15 K, x2 = 0.3126	1116.2	0.8504
293.15 K, x2 = 0.4143	1072.1	0.9115
293.15 K, x2 = 0.5148	1026.6	0.9988
293.15 K, x2 = 0.6141	980.6	1.139
293.15 K, x2 = 0.7123	938.6	1.31
293.15 K, x2 = 0.8093	890.5	1.534
293.15 K, x2 = 0.9052	839.4	1.795
298.15 K, x2 = 0.1054	1199.2	0.7324
298.15 K, x2 = 0.2095	1154.4	0.7472
298.15 K, x2 = 0.3124	1109.3	0.7831
298.15 K, x2 = 0.4141	1067.1	0.8368
298.15 K, x2 = 0.5146	1021.3	0.911
298.15 K, x2 = 0.614	976.2	1.035
298.15 K, x2 = 0.7122	934	1.176
298.15 K, x2 = 0.8092	885.9	1.37
298.15 K, x2 = 0.9052	836.3	1.603
303.15 K, x2 = 0.1056	1192.6	0.6845
303.15 K, x2 = 0.2099	1147.7	0.7003
303.15 K, x2 = 0.3129	1104.2	0.7255
303.15 K, x2 = 0.4146	1061.1	0.7704
303.15 K, x2 = 0.5151	1016	0.8342
303.15 K, x2 = 0.6144	970.5	0.9344
303.15 K, x2 = 0.7125	929.7	1.061
303.15 K, x2 = 0.8095	882.6	1.228
303.15 K, x2 = 0.9053	832.8	1.441
308.15 K, x2 = 0.1057	1183.4	0.64
308.15 K, x2 = 0.21	1140.7	0.6502
308.15 K, x2 = 0.3131	1097.2	0.6731
308.15 K, x2 = 0.4149	1054.9	0.7116
308.15 K, x2 = 0.5154	1009.5	0.7657
308.15 K, x2 = 0.6147	964	0.8541
308.15 K, x2 = 0.7128	924.3	0.9603
308.15 K, x2 = 0.8097	877.3	1.105
308.15 K, x2 = 0.9054	827.5	1.303
313.15 K, x2 = 0.1058	1174.9	0.6002
313.15 K, x2 = 0.2103	1133.5	0.6056
313.15 K, x2 = 0.3134	1089	0.6256
313.15 K, x2 = 0.4152	1047.4	0.6588
313.15 K, x2 = 0.5158	1004	0.706
313.15 K, x2 = 0.615	956.7	0.7849
313.15 K, x2 = 0.7131	918.9	0.8728
313.15 K, x2 = 0.8099	870.1	0.9952
313.15 K, x2 = 0.9055	821.5	1.176

O=Cc1ccccc1 [benzaldehyde]
[1]
Conditions	mass density [kg/m3]	viscosity [mPa·s]
288.15 K	1056	1.704
293.15 K	1052.8	1.558
298.15 K	1047	1.427
303.15 K	1043.2	1.316
308.15 K	1039	1.223
313.15 K	1034.4	1.131

O=Cc1ccccc1 [benzaldehyde] + CCCO
[2]
Conditions	mass density [kg/m3]	viscosity [mPa·s]
288.15 K, x2 = 0.099	1038.8	1.689
288.15 K, x2 = 0.193	1021.8	1.661
288.15 K, x2 = 0.3112	997.7	1.622
288.15 K, x2 = 0.3949	980.8	1.637
288.15 K, x2 = 0.5004	956.4	1.645
288.15 K, x2 = 0.5997	932.9	1.683
288.15 K, x2 = 0.6932	–	1.774
288.15 K, x2 = 0.8026	875.4	1.873
288.15 K, x2 = 0.9046	843.1	2.075
293.15 K, x2 = 0.0988	1034.2	1.536
293.15 K, x2 = 0.1927	1017	1.505
293.15 K, x2 = 0.3108	993.2	1.468
293.15 K, x2 = 0.3944	976.2	1.475
293.15 K, x2 = 0.5	951.6	1.483
293.15 K, x2 = 0.5992	928.6	1.501
293.15 K, x2 = 0.6927	–	1.588
293.15 K, x2 = 0.8023	871.4	1.669
293.15 K, x2 = 0.9045	839.1	1.84
298.15 K, x2 = 0.099	1029.9	1.405
298.15 K, x2 = 0.1929	1012.8	1.373
298.15 K, x2 = 0.3111	989.2	1.337
298.15 K, x2 = 0.3948	971.3	1.333
298.15 K, x2 = 0.5003	947	1.342
298.15 K, x2 = 0.5996	923.7	1.363
298.15 K, x2 = 0.693	–	1.423
298.15 K, x2 = 0.8025	867.6	1.491
298.15 K, x2 = 0.9046	835.3	1.64
303.15 K, x2 = 0.0989	1025.9	1.292
303.15 K, x2 = 0.1927	1008.1	1.258
303.15 K, x2 = 0.3108	984.8	1.224
303.15 K, x2 = 0.3945	967	1.216
303.15 K, x2 = 0.5	942.9	1.223
303.15 K, x2 = 0.5993	919.5	1.237
303.15 K, x2 = 0.6928	–	1.287
303.15 K, x2 = 0.8023	863.6	1.342
303.15 K, x2 = 0.9045	831.6	1.491
308.15 K, x2 = 0.0988	1021.4	1.193
308.15 K, x2 = 0.1926	1003.4	1.158
308.15 K, x2 = 0.3106	980.1	1.126
308.15 K, x2 = 0.3942	962.7	1.12
308.15 K, x2 = 0.4997	937.8	1.117
308.15 K, x2 = 0.599	915.5	1.128
308.15 K, x2 = 0.6925	–	1.169
308.15 K, x2 = 0.8022	858.9	1.215
308.15 K, x2 = 0.9044	827.3	1.317
313.15 K, x2 = 0.0986	1015.1	1.104
313.15 K, x2 = 0.1923	997.8	1.069
313.15 K, x2 = 0.3102	973.8	1.039
313.15 K, x2 = 0.3938	956.5	1.024
313.15 K, x2 = 0.4993	934	1.026
313.15 K, x2 = 0.5986	910.9	1.033
313.15 K, x2 = 0.6922	894.8	1.063
313.15 K, x2 = 0.8019	853.6	1.099
313.15 K, x2 = 0.9043	823.6	1.188

O=Cc1ccccc1 [benzaldehyde] + ClCCCl
[2]
Conditions	mass density [kg/m3]	viscosity [mPa·s]
288.15 K, x1 = 0.1005	1233	0.9491
288.15 K, x1 = 0.2068	1207.2	1.034
288.15 K, x1 = 0.2964	1186.5	1.097
288.15 K, x1 = 0.3902	1166	1.171
288.15 K, x1 = 0.4888	1146.4	1.27
288.15 K, x1 = 0.5923	1125.5	1.348
288.15 K, x1 = 0.7012	1107.6	1.454
288.15 K, x1 = 0.8159	1086.7	1.58
288.15 K, x1 = 0.9061	1070.6	1.66
293.15 K, x1 = 0.1007	1227.6	0.8854
293.15 K, x1 = 0.2072	1200	0.9592
293.15 K, x1 = 0.2969	1180.5	1.017
293.15 K, x1 = 0.3909	1161.8	1.085
293.15 K, x1 = 0.4894	1139.5	1.168
293.15 K, x1 = 0.5929	1119.9	1.242
293.15 K, x1 = 0.7017	1102.2	1.335
293.15 K, x1 = 0.8163	1082	1.445
293.15 K, x1 = 0.9063	1066.4	1.517
298.15 K, x1 = 0.1006	1220.5	0.8213
298.15 K, x1 = 0.2069	1196.1	0.8951
298.15 K, x1 = 0.2965	1174.6	0.9471
298.15 K, x1 = 0.3904	1155.5	1.008
298.15 K, x1 = 0.4889	1133.4	1.08
298.15 K, x1 = 0.5924	1117.3	1.151
298.15 K, x1 = 0.7013	1098.6	1.233
298.15 K, x1 = 0.816	1077.9	1.328
298.15 K, x1 = 0.9061	1063.1	1.394
303.15 K, x1 = 0.1009	1214.3	0.7706
303.15 K, x1 = 0.2074	1190	0.8362
303.15 K, x1 = 0.2972	1169.8	0.8848
303.15 K, x1 = 0.3911	1150.1	0.9515
303.15 K, x1 = 0.4897	1126.5	1.003
303.15 K, x1 = 0.5932	1112.7	1.07
303.15 K, x1 = 0.702	1094.4	1.143
303.15 K, x1 = 0.8165	1073.2	1.225
303.15 K, x1 = 0.9064	1058.5	1.285
308.15 K, x1 = 0.1011	1206.5	0.726
308.15 K, x1 = 0.2078	1182.6	0.7824
308.15 K, x1 = 0.2976	1162.9	0.828
308.15 K, x1 = 0.3917	1144.1	0.8897
308.15 K, x1 = 0.4903	1121	0.9346
308.15 K, x1 = 0.5937	1107.8	0.998
308.15 K, x1 = 0.7025	1091	1.067
308.15 K, x1 = 0.8168	1068.5	1.135
308.15 K, x1 = 0.9066	1053	1.189
313.15 K, x1 = 0.1013	1198	0.6795
313.15 K, x1 = 0.2083	1173.6	0.7327
313.15 K, x1 = 0.2983	1153.9	0.777
313.15 K, x1 = 0.3924	1136.7	0.8272
313.15 K, x1 = 0.491	1115.5	0.8725
313.15 K, x1 = 0.5945	1102.2	0.9318
313.15 K, x1 = 0.7031	1085.5	0.9944
313.15 K, x1 = 0.8173	1063.1	1.054
313.15 K, x1 = 0.9069	1049.7	1.107

CCCO [propan-1-ol]
[1]
Conditions	mass density [kg/m3]	viscosity [mPa·s]
288.15 K	810.5	2.42
293.15 K	806.5	2.137
298.15 K	803.2	1.894
303.15 K	799.3	1.684
308.15 K	795.2	1.504
313.15 K	790.4	1.352
